Laboratory results published in patent US20140323443A1, “TIGECYCLINE FORMULATIONS” (Fresenius Kabi USA, LLC, priority 2013, published 2014).

How the values were obtained:
[1] = aqueous liquid at 2-8° C., water sparged and tigecycline blanketed with inert gas, for 24 hours; cited from earlier work
[2] = pH of a saturated solution of tigecycline in water; format: physicochemical
Experimental: A solid composition that includes tigecycline and arginine may further include an acid and/or a base. The pH of a saturated solution of tigecycline in water is about 8. The amount of the acid and/or base may be an amount sufficient to provide a pH in the range of from 4 to 6 when a composition containing 53 mg tigecycline is reconstituted in 5.3 mL of an aqueous carrier liquid, such as 0.9% sodium chloride injection. Preferably the amount of the acid and/or base may be an amount sufficient to provide a pH in the range of from 4.25 to 5.75, from 4.5 to 5.75, from 4.5 to 5.5, or from 4.75 to 5.25 when a composition containing 53 mg tigecycline is reconstituted in 5.3 mL of an aqueous carrier liquid. In some embodiments, hydrochloric acid and/or sodium hydroxide is used to adjust pH.

[3] = cited from earlier work

pH of a saturated solution in water [2]: about 8
SMILES: CN(C)c1cc(NC(=O)CNC(C)(C)C)c(O)c2c1C[C@H]1C[C@H]3[C@H](N(C)C)C(O)=C(C(N)=O)C(=O)[C@@]3(O)C(O)=C1C2=O [tigecycline, (4S,4aS,5aR,12aS)-9-[2-(tert-butylamino)acetamido]-4,7-bis(dimethyl-amino)-1,4,4a,5,5a,6,11,12a-octahydro-3,10,12,12a-tetrahydroxy-1,11-dioxo-2-naphthacenecarboxamide]
amount of tigecycline converted into degradants prior to lyophilization [1]: below 1%
oral bioavailability [3]: poor
